Among the data in US12559529B2, “NPY2 receptor agonists” (Boehringer Ingelheim International GmbH, priority 2019, dated 2026) are Ki values, retold here.

*1 amine or outer side, *2 acyl side, *3 side chain or, on linkers, in order; H or OH if unused. Where a SMILES comes first, the peptide text is derived from it. Side-chain parts run from the residue outwards. The star is where a group is joined. C18 diacid = O=C(O)CCCCCCCCCCCCCCCCC(=O)*; γGlu = O=C(O)[C@H](CCC(=O)[*:2])N[*:1]; Isovaleryl = CC(C)CC(=O)*; AEEA = NCCOCCOCC(=O)O

The assay concerns the target T1, Human Neuropeptide Y2 Receptor (Homo sapiens, UniProt P49146).
T1 construct: purchased CHEMICON HTS066M
T1 sequence (P49146 1-381): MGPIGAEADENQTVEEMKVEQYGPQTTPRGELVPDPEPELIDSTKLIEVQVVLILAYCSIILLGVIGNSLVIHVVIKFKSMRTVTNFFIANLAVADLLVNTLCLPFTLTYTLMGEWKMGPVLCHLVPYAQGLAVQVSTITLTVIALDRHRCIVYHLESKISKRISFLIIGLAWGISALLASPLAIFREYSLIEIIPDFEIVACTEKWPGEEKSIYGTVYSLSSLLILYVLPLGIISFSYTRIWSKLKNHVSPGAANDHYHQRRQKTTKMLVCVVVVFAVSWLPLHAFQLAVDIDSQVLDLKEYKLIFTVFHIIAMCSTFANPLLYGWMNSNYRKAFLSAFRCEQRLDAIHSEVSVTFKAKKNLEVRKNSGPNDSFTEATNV
In words: Radioligand binding competition assay (RLB). Particulars: Table 3; human 125I-PYY (1-36) 0.02 nM, Y2 receptor membranes; read-out: Ki. The essentials: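 Peptide dilutions made in pH 7.4 HEPES assay buffer with 0.2% ovalbumin; human Y2 receptor membranes added at 0.5 μg protein/well; plates shaken 2 h at room temperature; reaction stopped by vacuum filtration onto PEI-treated GF/C filters with ice-cold high-salt washes; radioactivity counted by scintillation.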
A word on the Ki: it is a measure of affinity in units of concentration, obtained from inhibition or displacement. Regarding `CC(C)CC(=O)N[C@@H](C)C(=O)N1CCC[C@H]1C(=O)N[C@@H](CCC(=O)O)C(=O)N[C@@H](CCCCNC(=O)COCCOCCNC(=O)COCCOCCNC(=O)CC[C@H](NC(=O)CCCCCCCCCCCCCCCCC(=O)O)C(=O)O)C(=O)N1CCC[C@H]1C(=O)N[C@@H](CCC(=O)O)C(=O)N[C@@H](CCC(=O)O)C(=O)N[C@@H](CCC(=O)O)C(=O)N[C@H](C(=O)N[C@@H](CO)C(=O)N1CCC[C@H]1C(=O)N[C@@H](CCC(=O)O)C(=O)N[C@@H](CCC(=O)O)C(=O)N[C@@H](CC(C)C)C(=O)N[C@@H](CCC(N)=O)C(=O)N[C@@H](CCCNC(=N)N)C(=O)N[C@@H](Cc1ccc(O)cc1)C(=O)N[C@@H](Cc1ccc(O)cc1)C(=O)N[C@H](C(=O)N[C@@H](CO)C(=O)N[C@@H](CC(C)C)C(=O)N[C@@H](CCCNC(=N)N)C(=O)N[C@@H](Cc1c[nH]cn1)C(=O)N[C@@H](Cc1ccc(O)cc1)C(=O)N[C@@H](Cc1ccc(O)cc1)C(=O)N[C@@H](CC(N)=O)C(=O)N[C@@H](Cc1c[nH]c2ccccc12)C(=O)N[C@@H](CC(C)C)C(=O)N[C@H](C(=O)N[C@@H](CCCNC(=N)N)C(=O)N[C@@H](CCC(N)=O)C(=O)N[C@@H](CCCNC(=N)N)C(=O)N[C@@H](Cc1ccc(O)cc1)C(N)=O)[C@@H](C)O)C(C)C)[C@@H](C)O` [Compound 213, N{alpha-4}-(3-methylbutanoyl)-N{epsilon-7}-[2-(2-{2-[2-(2-{2-[(4S)-4-carboxy-4-(17-carboxyheptadecanamido)butanamido]ethoxy}ethoxy)acetamido]ethoxy}ethoxy)acetamido]-[4A,7K,9E,11E,12T,18Q,22V,28Y,30W,31L]hPYY (4-36)] (Isovaleryl-APEK([AEEA-AEEA-γGlu-C18 diacid])PEEETSPEELQRYYVSLRHYYNWLTRQRY-NH2), the Ki worked out at 6.54 nM.

For `CC(C)CC(=O)N[C@@H](C)C(=O)N1CCC[C@H]1C(=O)N[C@@H](CCC(=O)O)C(=O)N[C@@H](CCCCNC(=O)COCCOCCNC(=O)COCCOCCNC(=O)CC[C@H](NC(=O)CCCCCCCCCCCCCCCCC(=O)O)C(=O)O)C(=O)N1CCC[C@H]1C(=O)N[C@@H](CCC(=O)O)C(=O)N[C@@H](CCC(=O)O)C(=O)N[C@@H](CC(=O)O)C(=O)N[C@@H](C)C(=O)N[C@@H](CO)C(=O)N1CCC[C@H]1C(=O)N[C@@H](C)C(=O)N[C@@H](CCC(=O)O)C(=O)N[C@@H](CC(C)C)C(=O)N[C@@H](CCC(N)=O)C(=O)N[C@@H](CCCNC(=N)N)C(=O)N[C@@H](Cc1ccc(O)cc1)C(=O)N[C@@H](Cc1ccc(O)cc1)C(=O)N[C@H](C(=O)N[C@@H](CCC(=O)O)C(=O)N[C@@H](CC(C)C)C(=O)N[C@@H](CCCNC(=N)N)C(=O)N[C@@H](Cc1c[nH]cn1)C(=O)N[C@@H](Cc1ccc(O)cc1)C(=O)N[C@@H](Cc1ccc(O)cc1)C(=O)N[C@@H](CC(N)=O)C(=O)N[C@@H](Cc1c[nH]c2ccccc12)C(=O)N[C@@H](CC(C)C)C(=O)N[C@H](C(=O)N[C@@H](CCCNC(=N)N)C(=O)N[C@@H](CCC(N)=O)C(=O)N[C@@H](CCCNC(=N)N)C(=O)N[C@@H](Cc1ccc(O)cc1)C(N)=O)[C@@H](C)O)C(C)C` [Compound 215, N{alpha-4}-(3-methylbutanoyl)-N{epsilon-7}-[2-(2-{2-[2-(2-{2-[(4S)-4-carboxy-4-(17-carboxyheptadecanamido)butanamido]ethoxy}ethoxy)acetamido]ethoxy}ethoxy)acetamido]-[4A,7K,9E,15A,18Q,22V,23E,28Y,30W,31L]hPYY (4-36)], the Ki was found to be 0.48 nM.

As to `CC(C)CC(=O)N[C@@H](C)C(=O)N1CCC[C@H]1C(=O)N[C@@H](C)C(=O)N[C@@H](CCCCNC(=O)COCCOCCNC(=O)COCCOCCNC(=O)CC[C@H](NC(=O)CCCCCCCCCCCCCCCCC(=O)O)C(=O)O)C(=O)N1CCC[C@H]1C(=O)N[C@@H](CCC(=O)O)C(=O)N[C@@H](CCC(=O)O)C(=O)N[C@@H](CC(=O)O)C(=O)N[C@@H](C)C(=O)N[C@@H](CO)C(=O)N1CCC[C@H]1C(=O)N[C@@H](CCC(=O)O)C(=O)N[C@@H](CCC(=O)O)C(=O)N[C@@H](CC(C)C)C(=O)N[C@@H](CCC(=O)O)C(=O)N[C@@H](CCC(N)=O)C(=O)N[C@@H](Cc1ccc(O)cc1)C(=O)N[C@@H](Cc1ccc(O)cc1)C(=O)N[C@H](C(=O)N[C@@H](CO)C(=O)N[C@@H](CC(C)C)C(=O)N[C@@H](CCCNC(=N)N)C(=O)N[C@@H](Cc1c[nH]cn1)C(=O)N[C@@H](Cc1ccc(O)cc1)C(=O)N[C@@H](Cc1ccc(O)cc1)C(=O)N[C@@H](CC(N)=O)C(=O)N[C@@H](Cc1c[nH]c2ccccc12)C(=O)N[C@@H](CC(C)C)C(=O)N[C@H](C(=O)N[C@@H](CCCNC(=N)N)C(=O)N[C@@H](CCC(N)=O)C(=O)N[C@@H](CCCNC(=N)N)C(=O)N[C@@H](Cc1ccc(O)cc1)C(N)=O)[C@@H](C)O)C(C)C` [Compound 216, N{alpha-4}-(3-methylbutanoyl)-N{epsilon-7}-[2-(2-{2-[2-(2-{2-[(4S)-4-carboxy-4-(17-carboxyheptadecanamido)butanamido]ethoxy}ethoxy)acetamido]ethoxy}ethoxy)acetamido]-[4A,6A,7K,9E,18E,19Q,22V,28Y,30W,31L]hPYY (4-36)] (Isovaleryl-APAK([AEEA-AEEA-γGlu-C18 diacid])PEEDASPEELEQYYVSLRHYYNWLTRQRY-NH2), the Ki worked out at 0.93 nM.

`CC(C)CC(=O)N[C@@H](C)C(=O)N1CCC[C@H]1C(=O)N[C@@H](CCC(=O)O)C(=O)N[C@@H](CCCCNC(=O)COCCOCCNC(=O)COCCOCCNC(=O)CC[C@H](NC(=O)CCCCCCCCCCCCCCCCC(=O)O)C(=O)O)C(=O)N1CCC[C@H]1C(=O)N[C@@H](CCC(=O)O)C(=O)N[C@@H](CCC(=O)O)C(=O)N[C@@H](CC(=O)O)C(=O)N[C@@H](CO)C(=O)N[C@@H](CO)C(=O)N1CCC[C@H]1C(=O)N[C@@H](CCC(=O)O)C(=O)N[C@@H](CCC(=O)O)C(=O)N[C@@H](CC(C)C)C(=O)N[C@@H](CCC(N)=O)C(=O)N[C@@H](CCCNC(=N)N)C(=O)N[C@@H](Cc1ccc(O)cc1)C(=O)N[C@@H](Cc1ccc(O)cc1)C(=O)N[C@H](C(=O)N[C@@H](C)C(=O)N[C@@H](CC(C)C)C(=O)N[C@@H](CCCNC(=N)N)C(=O)N[C@@H](Cc1c[nH]cn1)C(=O)N[C@@H](Cc1ccc(O)cc1)C(=O)N[C@@H](Cc1ccc(O)cc1)C(=O)N[C@@H](CC(N)=O)C(=O)N[C@@H](Cc1c[nH]c2ccccc12)C(=O)N[C@@H](CC(C)C)C(=O)N[C@H](C(=O)N[C@@H](CCCNC(=N)N)C(=O)N[C@@H](CCC(N)=O)C(=O)N[C@@H](CCCNC(=N)N)C(=O)N[C@@H](Cc1ccc(O)cc1)C(N)=O)[C@@H](C)O)C(C)C` [Compound 218, N{alpha-4}-(3-methylbutanoyl)-N{epsilon-7}-[2-(2-{2-[2-(2-{2-[(4S)-4-carboxy-4-(17-carboxyheptadecanamido)butanamido]ethoxy}ethoxy)acetamido]ethoxy}ethoxy)acetamido]-[4A,7K,9E,12S,18Q,22V,23A,28Y,30W,31L]hPYY (4-36)]: the Ki worked out at 1.49 nM.

For `CC(C)CC(=O)N[C@@H](C)C(=O)N1CCC[C@H]1C(=O)N[C@@H](CCC(=O)O)C(=O)N[C@@H](CCCCNC(=O)COCCOCCNC(=O)COCCOCCNC(=O)CC[C@H](NC(=O)CCCCCCCCCCCCCCCCC(=O)O)C(=O)O)C(=O)N1CCC[C@H]1C(=O)N[C@@H](CCC(=O)O)C(=O)N[C@@H](CCC(=O)O)C(=O)N[C@@H](CCC(=O)O)C(=O)N[C@@H](C)C(=O)N[C@@H](C)C(=O)N1CCC[C@H]1C(=O)N[C@@H](CCC(=O)O)C(=O)N[C@@H](CCC(=O)O)C(=O)N[C@@H](CC(C)C)C(=O)N[C@@H](CCC(N)=O)C(=O)N[C@@H](CCCNC(=N)N)C(=O)N[C@@H](Cc1ccc(O)cc1)C(=O)N[C@@H](Cc1ccc(O)cc1)C(=O)N[C@H](C(=O)N[C@@H](CO)C(=O)N[C@@H](CC(C)C)C(=O)N[C@@H](CCCNC(=N)N)C(=O)N[C@@H](Cc1c[nH]cn1)C(=O)N[C@@H](Cc1ccc(O)cc1)C(=O)N[C@@H](Cc1ccc(O)cc1)C(=O)N[C@@H](CC(N)=O)C(=O)N[C@@H](Cc1c[nH]c2ccccc12)C(=O)N[C@@H](CC(C)C)C(=O)N[C@H](C(=O)N[C@@H](CCCNC(=N)N)C(=O)N[C@@H](CCC(N)=O)C(=O)N[C@@H](CCCNC(=N)N)C(=O)N[C@@H](Cc1ccc(O)cc1)C(N)=O)[C@@H](C)O)C(C)C` [Compound 219, N{alpha-4}-(3-methylbutanoyl)-N{epsilon-7}-[2-(2-{2-[2-(2-{2-[(4S)-4-carboxy-4-(17-carboxyheptadecanamido)butanamido]ethoxy}ethoxy)acetamido]ethoxy}ethoxy)acetamido]-[4A,7K,9E,11E,13A,18Q,22V,28Y,30W,31L]hPYY (4-36)], the Ki was 7.6 nM.
